Test results reported in PubChem BioAssay (NCI).
Several values for one entry are separate records, joined by “and”; a condition that tells them apart may be missing. Equal values may be shown once.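 Results reflect a 48-hour exposure of cells in 96-well plates to compound at five concentrations. Abbreviation: GI50, concentration required for 50% inhibition of growth. TGI marks complete inhibition of growth.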

Key:
Assay in all cases: NCI-60 cell line screen, 48 h
HCT-15 colon = tested on: HCT-15 colon
HL-60(TB) leukemia = tested on: HL-60(TB) leukemia
HOP-62 NSCLC = tested on: HOP-62 NSCLC
HS 578T breast = tested on: HS 578T breast
MCF7 breast = tested on: MCF7 breast
OVCAR-3 ovarian = tested on: OVCAR-3 ovarian
OVCAR-8 ovarian = tested on: OVCAR-8 ovarian
PC-3 prostate = tested on: PC-3 prostate
SF-268 CNS = tested on: SF-268 CNS
UO-31 renal = tested on: UO-31 renal

Structure (SMILES)	GI50 (HCT-15 colon) [µM]	TGI (HCT-15 colon) [µM]	GI50 (HL-60(TB) leukemia) [µM]	TGI (HL-60(TB) leukemia)	GI50 (HOP-62 NSCLC) [µM]	TGI (HOP-62 NSCLC) [µM]	GI50 (HS 578T breast)	TGI (HS 578T breast) [µM]	GI50 (MCF7 breast) [µM]	TGI (MCF7 breast) [µM]	TGI (OVCAR-3 ovarian) [µM]	GI50 (OVCAR-8 ovarian) [µM]	TGI (OVCAR-8 ovarian) [µM]	GI50 (PC-3 prostate) [µM]	TGI (PC-3 prostate) [µM]	GI50 (SF-268 CNS) [µM]	TGI (SF-268 CNS) [µM]	GI50 (UO-31 renal) [µM]	TGI (UO-31 renal) [µM]	GI50 (OVCAR-3 ovarian) [µM]
COc1ccc(-c2csc3c2-n2cccc2C3=O)cc1	0.0276	> 100	0.00416	0.0185 µM and 0.0984 µM	0.0986	> 72	0.211 µM and 0.0224 µM	0.095	0.0945	> 41.6	0.264	0.068	> 100	0.0317	> 52.1	0.0434	> 100	0.049	> 44.2	
ClC1=C(Cl)C(Cl)(C2(Cl)C(Cl)=C(Cl)C(Cl)=C2Cl)C(Cl)=C1Cl	0.214	0.552	0.206	0.549 µM	2.21	4.56	2.22 µM	6.43	0.241	0.921	0.417	0.365	3.79	0.975	2.95	1.28	4.05	0.17	0.445	0.199
CC(C)=CC[C@@H]1CC2(CC=C(C)C)C(=O)C(OC3(C(=O)c4ccccc4)C(=O)C4(CC=C(C)C)C[C@@H](CC=C(C)C)C(C)(C)C(CC=C(C)C)(C4=O)C3=O)(C(=O)c3ccccc3)C(=O)C(CC=C(C)C)(C2=O)C1(C)C (some centres not stated)	1.41	5.23	1.06	2.44 µM	1.36	4	1.6 µM	4.67	1.37	5.85	3.25	1.7	6.05	1.28	4.36	1.13	2.89	1.28	4.82	1.24
COC(=O)c1c2c(c(C)[n+]([O-])c1C)C(=O)C(NCc1ccc(OC)cc1)=CC2=O	1.64	3.72	1.67	5.25 µM	3.64	97.2	3.81 µM	36.6	1.41	3.35	1.2	2.78	> 100	2.31	10.4	2.64	10.3	2.48	10	0.315
CCCCn1c(=O)[nH]c(N)c([C@@H]2c3c([nH]c(=O)n(CCCC)c3=O)Oc3ccc4ccccc4c32)c1=O	1.67	3.41	2.47	6.75 µM	1.5	4.72	4.55 µM	37.1	2.88	24	2.98	1.82	3.51	1.65	3.23	1.76	3.58	1.35	2.69	1.63
Cn1ncnc1[C@@H]1c2n[nH]c(=O)c3cc(F)cc(c23)N[C@H]1c1ccc(F)cc1	> 100	> 100	> 100	> 100 µM	> 100	> 100	> 100 µM	> 100	> 100	> 100	> 100	> 100	> 100	> 100	> 100	> 100	> 100	83.3	> 100	> 100
CCN(Cc1ccc(OC)cc1)c1ccc(CO)c(Cl)c1	12.2	> 100	13.8	59.9 µM	2.05	29.4	22.1 µM	> 86.1	0.163	15.7	6.19	14	52.4	21.7	> 81.8	29.1	> 100	6.18	39.6	0.636
COC(=O)N[C@H]1CCc2cc(OC)c(OC)c(OC)c2-c2ccc(SC)c(=O)cc21	< 0.01	> 47.3	< 0.01		< 0.01	> 100	< 0.01 µM	> 100	< 0.01	> 100		< 0.01	> 100	< 0.01	> 100	< 0.01	> 100	< 0.0447	> 100	< 0.01
COc1cc2cc(NCc3cccc(Cl)c3)nc(C)c2cc1OC	2.83	19.9	2.95	55.9 µM	0.862	22.2	4.87 µM	56.7	4.72	23	16.3	3.04	23.6	3.14	23.7	2.97	23.9	0.678	14.4	3.72
O=P1(NCCCl)OCCCN1CCCl (configuration not stated)		429		381 µM		444		> 500		388	422		439		> 500		426		441	
COc1ccc2c(c1)[C@@H](NC(C)=O)CCc1cc(OC)c(OC)c(OC)c1-2		> 30.9		< 0.0142 µM		> 100		> 100		> 100	< 0.215		1.27		> 4.75		> 90.4		> 100	
O=C1NC(=O)C(c2c[nH]c3ccccc23)=C1c1c[nH]c2ccccc12	8.32	> 25	11.1	> 25 µM	16.5	> 25	5.56 µM	> 25	9.32	> 25	> 25	15.8	> 25	10.2	> 25	16.3	> 25	3.08	> 25	17.5
CCN1CCN(CCC(=O)Nc2cccc(-n3cc(-c4ccncc4)c(-c4ccc(Cl)c(OC)c4)n3)c2)CC1	0.491	2.16	0.34	1.13 µM	0.697	2.43	0.454 µM	3.85	0.267	1.45	1.43	1.26	3.82	0.448	2.02	0.663	2.43	0.922	2.53	0.352
CCOc1ccc(N(C)c2ccc(/C=C/C3=[N+](C)c4ccccc4C3(C)C)cc2)cc1	0.596	2.11	0.059	0.257 µM	0.482	1.91	0.314 µM	2	0.498	2.79	1.09	0.117	1.17	0.0759	0.793	0.933	2.65	0.449	1.79	0.151
CC1CCCCCC(=O)c2c(O)cc(O)cc2CC(=O)O1 (configuration not stated)		> 100		> 100 µM		> 100		> 100		> 100	> 100		> 100		> 100		> 100		> 100	
C=C(CO)C(=O)OC1CC(=C)C2CC(O)C(C)C2C2OC(=O)C(=C)C12 (configuration not stated)		35		62.5 µM		46.5		47.5		34.3	34.2		69.9		> 100		39.4		36.6	
CCC(=C(c1ccc(OCCN2CCCCC2)cc1)c1ccc(OCCN2CCCCC2)cc1)c1ccc(Cl)cc1	1.05	> 16.7	3.41	9.55 µM	> 16.7	> 16.7	4.23 µM	> 16.7	0.761	> 16.7	> 16.7	> 16.7	> 16.7	> 16.7	> 16.7	6.7	> 16.7	2.32	7.87	11.2
CC(=O)/C(=C\c1ccc(Cl)cc1)c1ccccc1	0.331	> 100	0.0307	0.117 µM	0.179	> 100	0.0832 µM	> 100	0.0375	> 100	0.229	0.304	> 100	0.0852	> 100	0.201	> 100	1.02	> 57.9	0.0383
O=C(O)c1ccc(N(/C=C/C(=O)C(F)(F)F)Cc2ccc(Cl)cc2)cc1	21.4	59.7	40.2	> 100 µM	24.5	65.3	26.4 µM	84.7	> 100	> 100	72.5	26.1	78.4	37.9	> 100	> 100	> 100	1.19	15.7	25.8
